The molecules below were run against PRMT5/MEP50 (Homo sapiens (Human), UniProt O14744) (assay: PRMT5 Biochemical Assay (PRMT5/MEP50 enzyme assay on peptide substrate, 3H-SAM Flashplate)). Conditions: PRMT5/MEP50 4 nM, 3H-SAM 75 nM, peptide 40 nM.
PRMT5/MEP50, sequence (O14744 other isoform, or with tags, fused parts or gaps): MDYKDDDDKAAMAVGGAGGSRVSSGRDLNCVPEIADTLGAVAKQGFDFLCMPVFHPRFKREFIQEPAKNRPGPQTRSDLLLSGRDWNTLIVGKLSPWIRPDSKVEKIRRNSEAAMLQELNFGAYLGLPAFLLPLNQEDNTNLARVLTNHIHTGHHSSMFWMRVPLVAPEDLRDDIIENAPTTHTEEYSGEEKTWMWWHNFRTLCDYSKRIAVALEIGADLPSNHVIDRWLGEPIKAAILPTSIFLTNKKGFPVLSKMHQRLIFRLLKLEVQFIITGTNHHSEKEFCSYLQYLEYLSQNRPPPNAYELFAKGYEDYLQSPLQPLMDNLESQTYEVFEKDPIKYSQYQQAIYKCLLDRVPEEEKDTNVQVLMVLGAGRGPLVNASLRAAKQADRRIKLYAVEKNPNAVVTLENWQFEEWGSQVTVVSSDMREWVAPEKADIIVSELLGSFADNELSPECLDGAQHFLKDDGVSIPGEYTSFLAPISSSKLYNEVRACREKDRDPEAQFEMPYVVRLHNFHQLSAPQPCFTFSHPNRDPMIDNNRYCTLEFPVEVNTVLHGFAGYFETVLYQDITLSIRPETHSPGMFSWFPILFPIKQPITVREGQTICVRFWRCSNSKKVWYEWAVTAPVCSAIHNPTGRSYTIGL
PRMT5/MEP50, sequence (Q9BQA1 other isoform, or with tags, fused parts or gaps partner): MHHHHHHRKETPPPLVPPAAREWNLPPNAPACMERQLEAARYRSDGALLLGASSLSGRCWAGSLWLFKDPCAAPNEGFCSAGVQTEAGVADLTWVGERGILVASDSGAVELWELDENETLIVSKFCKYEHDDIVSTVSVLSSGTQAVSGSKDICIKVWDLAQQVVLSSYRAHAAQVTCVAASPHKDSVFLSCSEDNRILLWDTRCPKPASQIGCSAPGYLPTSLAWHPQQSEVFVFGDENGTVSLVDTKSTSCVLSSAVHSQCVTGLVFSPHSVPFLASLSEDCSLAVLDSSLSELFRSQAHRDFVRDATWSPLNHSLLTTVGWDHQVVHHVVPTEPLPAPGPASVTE
Source text: General Materials. S-adenosylmethionine (SAM), S-adenosylhomocysteine (SAH), bicine, KCl, Tween20, dimethylsulfoxide (DMSO), bovine skin gelatin (BSG), and Tris(2-carboxyethyl)phosphine hydrochloride solution (TCEP) were purchased from Sigma-Aldrich at the highest level of purity possible. ^3H-SAM was purchase from American Radiolabeled Chemicals with a specific activity of 80 Ci/mmol. 384-well streptavidin Flashplates were purchased from PerkinElmer.
Substrates. Peptide representative of human histone H4 residues 1-15 was synthesized with a C-terminal linker-affinity tag motif and a C-terminal amide cap by 21st Century Biochemicals. […] The sequence was Ac-[…][K-Biot]-amide (SEQ ID NO.:3).
Full-length human MEP50 (NM_024102) clone was amplified from a human testis cDNA library incorporating a 5′ sequence encoding a 6-histidine tag (MHHHHHH) (SEQ ID NO.:5) fused directly to Arg 2 of MEP50. The amplified genes were sublconed into pENTR/D/TEV (Life Technologies) and subsequently transferred by Gateway™ attL×attR recombination to pDEST8 baculvirus expression vector (Life Technologies).
Protein Expression. Recombinant baculovirus and Baculovirus-Infected Insect Cells (BIIC) were generated according to Bac-to-Bac kit instructions (Life Technologies) and Wasilko, 2006, respectively. Protein over-expression was accomplished by infecting exponentially growing Spodoptera frugiperda (SF9) cell culture at 1.2×10^6 cell/ml with a 5000 fold dilution of BIIC stock. Infections were carried out at 27° C. for 72 hours, harvested by centrifugation, and stored at −80° C. for purification.
Protein Purification. […] Flag-PRMT5/6His-MeP50 was eluted with 300 mM Imidazole in the same buffer. […] Reference: Wasilko, D. J. and S. E. Lee: “TIPS: titerless infected-cells preservation and scale-up” Bioprocess J., 5 (2006), pp. 29-32.
General Procedure for PRMT5/MEP50 Enzyme Assays on Peptide Substrates.
The assays were all performed in a buffer consisting of 20 mM Bicine (pH=7.6), 1 mM TCEP, 0.005% BSG, and 0.002% Tween20, prepared on the day of use. Compounds in 100% DMSO (1 ul) were spotted into a polypropylene 384-well V-bottom plates (Greiner) using a Platemate Plus outfitted with a 384-channel head (Thermo Scientific). DMSO (1 ul) was added to Columns 11, 12, 23, 24, rows A-H for the maximum signal control and 1 ul of SAH, a known product and inhibitor of PRMT5/MEP50, was added to columns 11, 12, 23, 24, rows I-P for the minimum signal control. A cocktail (40 ul) containing the PRMT5/MEP50 enzyme and the peptide was added by Multidrop Combi (Thermo-Fisher). The compounds were allowed to incubate with PRMT5/MEP50 for 30 min at 25 degrees Celsius, then a cocktail (10 ul) containing ^3H-SAM was added to initiate the reaction (final volume=51 ul). The final concentrations of the components were as follows: PRMT5/MEP50 was 4 nM, ^3H-SAM was 75 nM, peptide was 40 nM, SAH in the minimum signal control wells was 100 uM, and the DMSO concentration was 1%. The assays were stopped by the addition of non-radioactive SAM (10 ul) to a final concentration of 600 uM, which dilutes the ^3H-SAM to a level where its incorporation into the peptide substrate is no longer detectable. 50 ul of the reaction in the 384-well polypropylene plate was then transferred to a 384-well Flashplate and the biotinylated peptides were allowed to bind to the streptavidin surface for at least 1 hour before being washed three times with 0.1% Tween20 in a Biotek ELx405 plate washer. The plates were then read in a PerkinElmer TopCount plate reader to measure the quantity of ^3H-labeled peptide bound to the Flashplate surface, measured as disintegrations per minute (dpm) or alternatively, referred to as counts per minute (cpm).
[formula] Where dpm=disintegrations per minute, cmpd=signal in assay well, and min and max are the respective minimum and maximum signal controls.
For `CC(Oc1ccccc1S(C)(=O)=O)C(=O)NCC(O)CN1CCc2ccccc2C1` (centres unmarked) [Compound 114], the IC50 was 101 to 1000 nM.
Molecule `O=C(COc1ccccc1-c1c[nH]cn1)NCC(O)CN1CCc2ccccc2C1` (centres unmarked) [Compound 115] has an IC50 of 10000 to 50000 nM.
Molecule `O=C(COc1ccccc1C1CCNC1)NCC(O)CN1CCc2ccccc2C1` (centres unmarked) [Compound 116] has an IC50 of 1000 to 10000 nM.
In the case of `Cn1cc2c(OCC(=O)NCC(O)CN3CCc4ccccc4C3)cccc2n1` (centres unmarked) [Compound 118], the IC50 is reported as 101 to 1000 nM.
In the case of `CN1CCc2cccc(OCC(=O)NCC(O)CN3CCc4ccccc4C3)c2C1` (centres unmarked) [Compound 120], the IC50 is reported as 101 to 1000 nM.
In the case of `O=C(COc1cccc(NC2CCOCC2)n1)NCC(O)CN1CCc2ccccc2C1` (centres unmarked) [Compound 121], the IC50 is reported as 1000 to 10000 nM.
Work on `CC(=O)N1CCN(S(=O)(=O)c2ccccc2OCC(=O)NCC(O)CN2CCc3ccccc3C2)CC1` (centres unmarked) [Compound 122] yielded an IC50 of 101 to 1000 nM.
`O=C(COc1cccc2c1OCC(=O)N2)NCC(O)CN1CCc2ccccc2C1` (centres unmarked) [Compound 124] showed an IC50 of 1000 to 10000 nM.
`O=C(COc1cccc2[nH]c(=O)cnc12)NCC(O)CN1CCc2ccccc2C1` (centres unmarked) [Compound 125] gave an IC50 of 1000 to 10000 nM.
For `CN(C)c1ncccc1OCC(=O)NCC(O)CN1CCc2ccccc2C1` (centres unmarked) [Compound 127], the IC50 was 101 to 1000 nM.
Work on `O=C(COc1cccc2ncc(=O)[nH]c12)NCC(O)CN1CCc2ccccc2C1` (centres unmarked) [Compound 129] yielded an IC50 of 101 to 1000 nM.
`NS(=O)(=O)c1cccc(OCC(=O)NCC(O)CN2CCc3ccccc3C2)c1` (centres unmarked) [Compound 131] gave an IC50 of 1000 to 10000 nM.
Work on `O=C(COc1ccccc1C1CNC1)NCC(O)CN1CCc2ccccc2C1` (centres unmarked) [Compound 132] yielded an IC50 of 1000 to 10000 nM.
`CN1CCC(c2ccccc2OCC(=O)NCC(O)CN2CCc3ccccc3C2)CC1` (centres unmarked) [Compound 134] gave an IC50 of 101 to 1000 nM.
With `CN1CC(c2ccccc2OCC(=O)NCC(O)CN2CCc3ccccc3C2)C1` (centres unmarked) [Compound 135] the IC50 was 1000 to 10000 nM.
In the case of `CN1CCC(c2ccccc2OCC(=O)NCC(O)CN2CCc3ccccc3C2)C1` (centres unmarked) [Compound 136], the IC50 is reported as 1000 to 10000 nM.
`O=C(COc1ccccc1-c1ncc[nH]1)NCC(O)CN1CCc2ccccc2C1` (centres unmarked) [Compound 137] showed an IC50 of 101 to 1000 nM.
With `Cn1ccnc1-c1ccccc1OCC(=O)NCC(O)CN1CCc2ccccc2C1` (centres unmarked) [Compound 138] the IC50 was 101 to 1000 nM.
`CS(=O)(=O)Nc1cccnc1OCC(=O)NCC(O)CN1CCc2ccccc2C1` (centres unmarked) [Compound 140] gave an IC50 of 1000 to 10000 nM.
Molecule `CC(C)(C)OC(=O)Nc1ccccc1OCC(=O)NCC(O)CN1CCc2ccccc2C1` (centres unmarked) [Compound 141] has an IC50 of 1000 to 10000 nM.
`CN(c1cccc(OCC(=O)NCC(O)CN2CCc3ccccc3C2)c1)S(C)(=O)=O` (centres unmarked) [Compound 142] gave an IC50 of 101 to 1000 nM.
For `CN(C)c1cncc(OCC(=O)NCC(O)CN2CCc3ccccc3C2)c1` (centres unmarked) [Compound 143], the IC50 was 1000 to 10000 nM.
Work on `Nc1ncccc1OCC(=O)NCC(O)CN1CCc2ccccc2C1` (centres unmarked) [Compound 145] yielded an IC50 of 1000 to 10000 nM.
`O=C(COc1cccc2c1CCCN2)NCC(O)CN1CCc2ccccc2C1` (centres unmarked) [Compound 150] was tested, and the IC50 was 101 to 1000 nM.
`CN1CCCc2c(OCC(=O)NCC(O)CN3CCc4ccccc4C3)cccc21` (centres unmarked) [Compound 151] was tested, and the IC50 was 101 to 1000 nM.
In the case of `O=C(COCc1cccnc1)NCC(O)CN1CCc2ccccc2C1` (centres unmarked) [Compound 152, N-(3-(3,4-dihydroisoquinolin-2(1H)-yl)-2-hydroxypropyl)-2-(pyridin-3-ylmethoxy)acetamide], the IC50 is reported as 1000 to 10000 nM.

Source: patent US9765068B2, “PRMT5 inhibitors and uses thereof” (Epizyme, Inc., priority 2012, dated 2017)
